Results taken from the supplement of paper PMC10307832.

How the values were obtained:
Test in all cases: relative viability (nuclei count vs DMSO), 5 days (fraction); higher = more cells survive
FG-4592 + Pemetrexed = compound: Cc1nc(C(=O)NCC(=O)O)c(O)c2ccc(Oc3ccccc3)cc12 [FG-4592] + Nc1nc2[nH]cc(CCc3ccc(C(=O)N[C@@H](CCC(=O)O)C(=O)O)cc3)c2c(=O)[nH]1 [Pemetrexed] (partner 0.2 µM)
Outline: (§1)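 After 5 days of treatment, lung cancer cells in 1536-well plates were fixed and stained in a single step (final 0.05% Triton X-100, 1% formaldehyde, 1 ug/ml Hoechst) and their nuclei counted on 4× images. Treatment had been applied by pin tool the day after seeding as one drug alone or as a fixed anchor-drug dose with five library-drug doses (not always all listed) in √10 steps. Relative viability is the nuclei count of treated wells divided by that of vehicle wells, and values are medians of duplicate plates.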

FG-4592 + OSI-027 = compound: Cc1nc(C(=O)NCC(=O)O)c(O)c2ccc(Oc3ccccc3)cc12 [FG-4592] + COc1cccc2cc(-c3nc([C@H]4CC[C@H](C(=O)O)CC4)n4ncnc(N)c34)[nH]c12 [OSI-027] (partner 0.5 µM)
Outline: as §1

FG-4592 + Lapatinib = compound: Cc1nc(C(=O)NCC(=O)O)c(O)c2ccc(Oc3ccccc3)cc12 [FG-4592] + CS(=O)(=O)CCNCc1ccc(-c2ccc3ncnc(Nc4ccc(OCc5cccc(F)c5)c(Cl)c4)c3c2)o1 [Lapatinib] (partner 2 µM)
Outline: as §1

IU1-47 + Foretinib = compound: CC1=CC(=C(N1C2=CC=C(C=C2)Cl)C)C(=O)CN3CCCCC3 [IU1-47] + COc1cc2c(Oc3ccc(NC(=O)C4(C(=O)Nc5ccc(F)cc5)CC4)cc3F)ccnc2cc1OCCCN1CCOCC1 [Foretinib] (partner 0.25 µM)
Outline: as §1

Row | Cell Line | relative viability (FG-4592 + Pemetrexed; first compound 0.08 µM) | relative viability (FG-4592 + Pemetrexed; first compound 0.253 µM) | relative viability (FG-4592 + Pemetrexed; first compound 0.8 µM) | relative viability (FG-4592 + Pemetrexed; first compound 2.53 µM) | relative viability (FG-4592 + Pemetrexed; first compound 8 µM) | relative viability (FG-4592 + OSI-027; first compound 0.08 µM) | relative viability (FG-4592 + OSI-027; first compound 0.253 µM) | relative viability (FG-4592 + OSI-027; first compound 0.8 µM) | relative viability (FG-4592 + OSI-027; first compound 2.53 µM) | relative viability (FG-4592 + OSI-027; first compound 8 µM) | relative viability (FG-4592 + Lapatinib; first compound 0.08 µM) | relative viability (FG-4592 + Lapatinib; first compound 0.253 µM) | relative viability (FG-4592 + Lapatinib; first compound 0.8 µM) | relative viability (FG-4592 + Lapatinib; first compound 2.53 µM) | relative viability (FG-4592 + Lapatinib; first compound 8 µM) | relative viability (IU1-47 + Foretinib; first compound 0.08 µM) | relative viability (IU1-47 + Foretinib; first compound 0.253 µM) | relative viability (IU1-47 + Foretinib; first compound 0.8 µM) | relative viability (IU1-47 + Foretinib; first compound 2.53 µM) | relative viability (IU1-47 + Foretinib; first compound 8 µM)
1 | 201T | 0.355 | 0.331 | 0.305 | 0.29 | 0.308 | 0.683 | 0.662 | 0.738 | 0.815 | 0.704 | 0.976 | 1.03 | 0.931 | 1.04 | 1.01 | 1.31 | 1.22 | 1.26 | 1.05 | 1.09
2 | A549 | – | – | – | – | – | – | – | – | – | – | 0.917 | 0.975 | 1.03 | 1.07 | 0.946 | 0.9 | 1.09 | 0.983 | 1.08 | 0.889
3 | A-427 | 0.874 | 0.96 | 0.895 | 0.986 | 0.902 | 0.479 | 0.393 | 0.506 | 0.423 | 0.598 | 0.975 | 1.05 | 0.943 | 0.953 | 1.03 | 1.08 | 1.16 | 1.22 | – | 0.93
4 | ABC-1 | – | – | – | – | – | 0.548 | 0.482 | 0.47 | 0.501 | 0.4 | 1.11 | 1.11 | 1.06 | 1.08 | 0.801 | 1.1 | 0.985 | 1.06 | – | 1.07
5 | BEN | 0.548 | 0.649 | 0.592 | 0.822 | 0.726 | 0.222 | 0.287 | 0.315 | 0.313 | 0.299 | 0.495 | 0.507 | 0.555 | 0.822 | 0.475 | 0.618 | 0.676 | 0.646 | – | 0.61
6 | CAL-12T | 1.21 | 1.3 | 1.3 | 0.974 | 1.04 | 0.829 | 0.663 | 0.642 | 0.49 | 0.333 | 0.646 | 0.599 | 0.492 | 0.647 | 0.667 | 1.12 | 1.1 | 1.13 | 1.11 | 1.03
7 | COR-L23 | 0.205 | 0.204 | 0.171 | 0.194 | 0.187 | 0.798 | 0.617 | 0.793 | 0.701 | 0.468 | 0.906 | 0.914 | 0.965 | 0.838 | 0.81 | 1.14 | 1.09 | 1.08 | 1.02 | 1.16
8 | COR-L 105 | 1.03 | 0.92 | 1.13 | 1.14 | 0.877 | 0.555 | 0.602 | 0.767 | 0.551 | 0.435 | 0.348 | 0.342 | 0.264 | 0.382 | 0.329 | 0.907 | 1.14 | 1.22 | 1.2 | 1.4
